Data: ChEMBL document CHEMBL1201862, “PubChem BioAssay data set” (2004)
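96-well plates; 48 h exposure; 5 concentrations. Endpoints by linear interpolation between flanking doses. Not reached: highest tested concentration assigned. GI50: concentration for 50% inhibition of growth.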 The source made the active and inactive calls. Rule as the data show it: active = GI50 up to about 1.1 µM and inactive = higher.

What was measured:
Assay in all cases: NCI anticancer screen, dose series, 48 h
IGROV-1 = system: IGROV-1
HT-29 = system: HT-29
SNB-78 = system: SNB-78
HOP-92 = system: HOP-92
HCT-116 = system: HCT-116
A549 = system: A549
SNB-19 = system: SNB-19
UACC-62 = system: UACC-62
SN12C = system: SN12C
SK-MEL-5 = system: SK-MEL-5
KM12 = system: KM12
NCI-H522 = system: NCI-H522
ACHN = system: ACHN
CAKI-1 = system: CAKI-1
OVCAR-4 = system: OVCAR-4
SF-268 = system: SF-268
SF-539 = system: SF-539
TK-10 = system: TK-10
CCRF-CEM = system: CCRF-CEM
Malme-3M = system: Malme-3M

Structure (SMILES)	GI50 (IGROV-1)	GI50 (HT-29)	GI50 (SNB-78)	GI50 (HOP-92)	GI50 (HCT-116)	GI50 (A549)	GI50 (SNB-19)	GI50 (UACC-62)	GI50 (SN12C)	GI50 (SK-MEL-5)	GI50 (KM12)	GI50 (NCI-H522)	GI50 (ACHN)	GI50 (CAKI-1)	GI50 (OVCAR-4)	GI50 (SF-268)	GI50 (SF-539)	GI50 (TK-10)	GI50 (CCRF-CEM)	GI50 (Malme-3M)
O=C(Nc1ccc(F)cc1)C(=O)C(C(=O)c1ccccc1F)C1OC(=O)c2ccccc21 (stereo not given)	> 100 µM (inactive)	52.6 µM (inactive)	44.6 µM (inactive)	> 100 µM (inactive)	45.8 µM (inactive)	> 100 µM (inactive)	39.4 µM (inactive)	39.9 µM (inactive)	51.2 µM (inactive)	> 100 µM (inactive)	79.4 µM (inactive)	15 µM (inactive)	> 100 µM (inactive)	> 100 µM (inactive)	55.3 µM (inactive)	50 µM (inactive)	31 µM (inactive)	> 100 µM (inactive)	17.6 µM (inactive)	
CCOCc1cc(=O)c2c(O)cc3c(c2o1)CCC(C)(C)O3	> 100 µM (inactive)	> 100 µM (inactive)	> 100 µM (inactive)	4.86 µM (inactive)			> 100 µM (inactive)	> 100 µM (inactive)	> 100 µM (inactive)	> 100 µM (inactive)		> 100 µM (inactive)	> 100 µM (inactive)	> 100 µM (inactive)		> 100 µM (inactive)	> 100 µM (inactive)	> 100 µM (inactive)	> 100 µM (inactive)	> 100 µM (inactive)
CCOC(=O)c1cccc(NC(=O)CBr)c1	0.959 µM (active)	1.69 µM (inactive)		1.93 µM (inactive)	0.664 µM (active)	2.09 µM (inactive)	4.4 µM (inactive)	1.42 µM (inactive)	0.458 µM (active)	1.41 µM (inactive)	1.79 µM (inactive)	0.0164 µM (active)	1.56 µM (inactive)	0.618 µM (active)	1.53 µM (inactive)		0.984 µM (active)	1.67 µM (inactive)	0.0618 µM (active)	1.91 µM (inactive)
CCC(=O)c1c(NOC2OCC(OC(C)=O)C(OC(C)=O)C2OC(C)=O)nc(OC)n(C)c1=O (stereo not given)	> 100 µM (inactive)	> 100 µM (inactive)	> 100 µM (inactive)	> 100 µM (inactive)	> 100 µM (inactive)	> 100 µM (inactive)	> 100 µM (inactive)	> 100 µM (inactive)	> 100 µM (inactive)	> 100 µM (inactive)	> 100 µM (inactive)		> 100 µM (inactive)	> 100 µM (inactive)	> 100 µM (inactive)	> 100 µM (inactive)	> 100 µM (inactive)	> 100 µM (inactive)	> 100 µM (inactive)	> 100 µM (inactive)
N#C[C@@H](c1nc2ccccc2s1)c1ncccc1[N+](=O)[O-]	5.07 µM (inactive)	8.3 µM (inactive)		1.32 µM (inactive)	5.6 µM (inactive)	4.4 µM (inactive)	3.94 µM (inactive)	3.21 µM (inactive)	4.82 µM (inactive)	3.24 µM (inactive)	10.6 µM (inactive)	2.51 µM (inactive)	6.07 µM (inactive)	19 µM (inactive)	7.91 µM (inactive)	8.11 µM (inactive)		4.79 µM (inactive)	> 10 µM (inactive)	2.87 µM (inactive)
Clc1ccc(N/N=C(\c2ccccc2)c2ccccn2)nc1	0.0239 µM (active)	< 0.01 µM (active)		0.101 µM (active)	< 0.0148 µM (active)	0.387 µM (active)	1.17 µM (inactive)	0.214 µM (active)	< 0.01 µM (active)	0.0578 µM (active)	0.348 µM (active)	< 0.01 µM (active)	< 0.01 µM (active)	< 0.01 µM (active)	3.04 µM (inactive)	0.0258 µM (active)	0.622 µM (active)		< 0.01 µM (active)	< 0.01 µM (active)
CC1CC=CC(O)C1 (stereo not given)	> 100 µM (inactive)	> 100 µM (inactive)	> 100 µM (inactive)	> 100 µM (inactive)	> 100 µM (inactive)	> 100 µM (inactive)	> 100 µM (inactive)	> 100 µM (inactive)	> 100 µM (inactive)	> 100 µM (inactive)	> 100 µM (inactive)	> 100 µM (inactive)			> 100 µM (inactive)	> 100 µM (inactive)	> 100 µM (inactive)		> 100 µM (inactive)	> 100 µM (inactive)
C[C@H](C(=O)O)C(=O)NC(=O)N(Cc1ccccc1)N=O	> 100 µM (inactive)	> 100 µM (inactive)	> 100 µM (inactive)		> 100 µM (inactive)	> 100 µM (inactive)	> 100 µM (inactive)	> 100 µM (inactive)	> 100 µM (inactive)	> 100 µM (inactive)	> 100 µM (inactive)		> 100 µM (inactive)	> 100 µM (inactive)	> 100 µM (inactive)	> 100 µM (inactive)	> 100 µM (inactive)	> 100 µM (inactive)	67.1 µM (inactive)	> 100 µM (inactive)
COC(=O)/C=C\n1nc(Br)c(=O)[nH]c1=O	> 100 µM (inactive)	> 100 µM (inactive)		> 100 µM (inactive)		> 100 µM (inactive)	> 100 µM (inactive)		> 100 µM (inactive)	> 100 µM (inactive)	> 100 µM (inactive)	35.1 µM (inactive)	> 100 µM (inactive)	> 100 µM (inactive)	> 100 µM (inactive)	> 100 µM (inactive)	> 100 µM (inactive)	> 100 µM (inactive)	> 100 µM (inactive)	> 100 µM (inactive)
O=S(O)c1cc(Cl)cc(Cl)c1O		> 100 µM (inactive)	> 100 µM (inactive)		> 100 µM (inactive)		> 100 µM (inactive)	> 100 µM (inactive)	> 100 µM (inactive)		> 100 µM (inactive)	> 100 µM (inactive)	> 100 µM (inactive)		> 100 µM (inactive)	> 100 µM (inactive)	> 100 µM (inactive)	> 100 µM (inactive)	> 100 µM (inactive)	> 100 µM (inactive)
CN(C)CCNC(=O)c1ccc(Cl)c2ccc(-c3ccccc3)nc12	3.48 µM (inactive)	2.77 µM (inactive)	6.32 µM (inactive)	2.02 µM (inactive)	1.88 µM (inactive)	2.92 µM (inactive)	3.06 µM (inactive)	2.69 µM (inactive)	3.85 µM (inactive)	1.95 µM (inactive)	4.47 µM (inactive)	3.89 µM (inactive)		2.69 µM (inactive)	3.54 µM (inactive)	4.45 µM (inactive)	3.66 µM (inactive)		2.16 µM (inactive)	3.52 µM (inactive)
c1ccc(Nc2nnc(CCCCCCCCc3nnc(Nc4ccccc4)o3)o2)cc1	60.3 µM (inactive)	> 100 µM (inactive)			> 100 µM (inactive)	> 100 µM (inactive)	> 100 µM (inactive)		> 100 µM (inactive)	> 100 µM (inactive)	> 100 µM (inactive)	> 100 µM (inactive)	> 100 µM (inactive)	> 100 µM (inactive)	> 100 µM (inactive)	> 100 µM (inactive)	> 100 µM (inactive)	> 100 µM (inactive)	> 100 µM (inactive)	> 100 µM (inactive)
O=S(O)c1cc(Cl)cc(Cl)c1OCc1ccccc1		> 100 µM (inactive)	> 100 µM (inactive)		> 100 µM (inactive)		> 100 µM (inactive)	> 100 µM (inactive)	> 100 µM (inactive)		> 100 µM (inactive)	> 100 µM (inactive)	> 100 µM (inactive)		> 100 µM (inactive)	> 100 µM (inactive)	> 100 µM (inactive)	> 100 µM (inactive)	> 100 µM (inactive)	> 100 µM (inactive)
COCC1N=C(c2cc(OC)c(OC)c(OC)c2-c2cc3c(cc2[C@@H](C)O)OCO3)O[C@H]1c1ccccc1 (stereo not given in full)	> 68.9 µM (inactive)	75.9 µM (inactive)	> 45.2 µM (inactive)	34.4 µM (inactive)	> 100 µM (inactive)	> 57.3 µM (inactive)	73.1 µM (inactive)	33.6 µM (inactive)	52.1 µM (inactive)	> 76.7 µM (inactive)	> 100 µM (inactive)	36.2 µM (inactive)		99.8 µM (inactive)	37.6 µM (inactive)	> 66.2 µM (inactive)	77.4 µM (inactive)		> 100 µM (inactive)	> 80.5 µM (inactive)
COc1cc(C2c3cc4c(cc3[C@@H](Nc3cccc([N+](=O)[O-])c3)C3COC(=O)[C@H]23)OCO4)cc(OC)c1O (stereo not given in full)	6.65 µM (inactive)	2.6 µM (inactive)	5.66 µM (inactive)	2.92 µM (inactive)	1.99 µM (inactive)	0.2 µM (active)	2.5 µM (inactive)	2.52 µM (inactive)	2.75 µM (inactive)	1.88 µM (inactive)	3.01 µM (inactive)	2.83 µM (inactive)		1.03 µM (active)	20.2 µM (inactive)	2.91 µM (inactive)	1.43 µM (inactive)		0.4 µM (active)	2.62 µM (inactive)
COc1ccc2cc3[n+](cc2c1OC)CCc1cc2c(cc1-3)OCO2 [BERBERINE CHLORIDE]	40.6 µM (inactive)	31 µM (inactive)	53.8 µM (inactive)	36.7 µM (inactive)			8.38 µM (inactive)	29.9 µM (inactive)		4.95 µM (inactive)	7.71 µM (inactive)		> 100 µM (inactive)			5.2 µM (inactive)	35.3 µM (inactive)	> 100 µM (inactive)	13.2 µM (inactive)	6.68 µM (inactive)
